# Results taken from patent US10214542B2, “Modified macrocyclic compounds” (BAYER PHARMA AKTIENGESELLSCHAFT, priority 2015, dated 2019).
# Experiments:
# B16F10 cells = experiment: Proliferation assay, crystal violet (Method 3); assay type: cell-based; conditions: Mus musculus, B16-F10, 96 h; B16F10, 4 days; read-out: Inhibition of B16F10 cell proliferation IC50
# Protocol: (§1) Cultivated tumour cells (HeLa, human cervical tumour cells, ATCC CCL-2; NCI-H460, human non-small cell lung carcinoma cells, ATCC HTB-177; DU 145, hormone-independent human prostate carcinoma cells, ATCC HTB-81; HeLa-MaTu-ADR, multidrug-resistant human cervical carcinoma cells, EPO-GmbH Berlin; Caco-2, human colorectal carcinoma cells, ATCC HTB-37; B16F10, mouse melanoma cells, ATCC CRL-6475) were plated at a density of 5,000 cells/well (DU145, HeLa-MaTu-ADR), 3,000 cells/well (NCI-H460, HeLa), 1,500 cells/well (Caco-2), or 1,000 cells/well (B16F10) in a 96-well multititer plate in 200 μL of their respective growth medium supplemented 10% fetal calf serum. After 24 hours, the cells of one plate (zero-point plate) were stained with crystal violet (see below), while the medium of the other plates was supplemented with the test substances in various concentrations (0 μM, as well as in the range of 0.0001-10 μM; the final concentration of the solvent dimethyl sulfoxide was adjusted to 0.1%) using a Hewlett-Packard HP D300 Digital Dispenser. The cells were incubated for 4 days in the presence of test substances. Cell proliferation was determined by staining the cells with crystal violet: the cells were fixed by adding 20 μl/measuring point of an 11% glutaric aldehyde solution for 15 minutes at room temperature. After three washing cycles of the fixed cells with water, the plates were dried at room temperature. The cells were stained by adding 100 μl/measuring point of a 0.1% crystal violet solution (pH 3.0). After three washing cycles of the stained cells with water, the plates were dried at room temperature. The dye was dissolved by adding 100 μl/measuring point of a 10% acetic acid solution. The extinction was determined by photometry at a wavelength of 595 nm. The change of cell number, in percent, was calculated by normalization of the measured values to the extinction values of the zero-point plate (=0%) and the extinction of the untreated (0 μm) cells (=100%). The IC50 values (inhibitory concentration at 50% of maximal effect) were determined by means of a 4 parameter fit.
# HeLa-MaTu-ADR cells = experiment: Proliferation assay, crystal violet (Method 3); assay type: cell-based; conditions: Homo sapiens, 96 h, 4 days, read-out: Inhibition of HeLa-MaTu-ADR cell proliferation IC50
# Protocol: as §1
# Caco-2 cells = experiment: Proliferation assay, crystal violet (Method 3); assay type: cell-based; conditions: Homo sapiens, 96 h; Caco-2, 4 days; read-out: Inhibition of Caco-2 cell proliferation IC50
# Protocol: as §1
# DU145 cells = experiment: Proliferation assay, crystal violet (Method 3); assay type: cell-based; conditions: Homo sapiens, DU-145, 96 h; DU145, 4 days; read-out: Inhibition of DU145 cell proliferation IC50
# Protocol: as §1
# NCI-H460 cells = experiment: Proliferation assay, crystal violet (Method 3); assay type: cell-based; conditions: Homo sapiens, 96 h; NCI-H460, 4 days; read-out: Inhibition of NCI-H460 cell proliferation IC50
# Protocol: as §1
# CDK2/CycE = molecular target: T1, CDK2/CycE (Homo sapiens, UniProt P24941); experiment: CDK2/CycE high ATP kinase assay (TR-FRET, Method 2b); assay type: biochemical; conditions: 2 mM ATP
# T1 construct: GST; purchased ProQinase GmbH (Freiburg, Germany); host or cells: insect cells (Sf9)
# HeLa cells = experiment: Proliferation assay, crystal violet (Method 3); assay type: cell-based, human; conditions: Homo sapiens, 96 h, 4 days, read-out: Inhibition of HeLa cell proliferation IC50
# Protocol: as §1
IC50 (B16F10 cells),IC50 (HeLa-MaTu-ADR cells),IC50 (Caco-2 cells),IC50 (DU145 cells),IC50 (NCI-H460 cells),IC50 (CDK2/CycE),IC50 (HeLa cells),Compound
543 nM,334 nM,243 nM,327 nM,476 nM,11900 nM,327 nM,"CC(C)(C)OC(=O)N=S(C)(=O)Cc1cc2cc(c1)OCCCCSc1cc(F)ccc1-c1nc(ncc1F)N2 (racemic) [Example 21, (rac)-tert-butyl[{[16,20-difluoro-2,3,4,5-tetrahydro-12H-17,13-(azeno)-11,7-(metheno)-6,1,12,14-benzoxathiadiazacyclononadecin-9-yl]methyl}(methyl)oxido-λ^6-sulfanylidene]carbamate]"
110 nM,105 nM,74 nM,36 nM,115 nM,1100 nM,102 nM,"CS(=N)(=O)Cc1cc2cc(c1)OCCCCSc1cc(F)ccc1-c1nc(ncc1F)N2 (racemic) [Example 22, (rac)-16,20-difluoro-9-[(S-methylsulfonimidoyl)methyl]-2,3,4,5-tetrahydro-12H-17,13-(azeno)-11,7-(metheno)-6,1,12,14-benzoxathiadiazacyclononadecine]"
51 nM,28 nM,36 nM,30 nM,31 nM,531 nM,28 nM,"CSCc1cc2nc(c1)Nc1cc(c(F)cn1)-c1ccc(F)cc1OCCCN2 [Example 1, 15,19-Difluoro-8-[(methylsulfanyl)methyl]-2,3,4,5-tetrahydro-11H-10,6-(azeno)-12,16-(metheno)-1,5,11,13-benzoxatriazacyclooctadecine]"
> 10000 nM,5570 nM,2550 nM,> 10000 nM,4770 nM,> 20000 nM,9280 nM,"CSCc1cc2nc(c1)OCCCCc1cc(F)ccc1-c1cc(ncc1F)N2 [Example 4, 2,18-Difluoro-9-[(methylsulfanyl)methyl]-13,14,15,16-tetrahydro-6H-7,11-(azeno)-5,1-(metheno)-12,4,6-benzoxadiazacyclooctadecine]"
> 10000 nM,> 10000 nM,4640 nM,> 10000 nM,> 10000 nM,> 20000 nM,> 10000 nM,"CSCc1cc2nc(c1)OCCCCCc1cc(F)ccc1-c1cc(ncc1F)N2 [Example 18, 2,19-difluoro-9-[(methylsulfanyl)methyl]-14,15,16,17-tetrahydro-6H,13H-7,11-(azeno)-5,1-(metheno)-12,4,6-benzoxadiazacyclononadecine]"
